Data from patent US5821219A (priority 1995, dated 1998).

Legend:
[1] = biological target: T1, novel mammalian opioid receptor (LC132, MSOR, OFQR) (Rattus norvegicus, UniProt P35370); experiment: biochemical; assay type: binding
T1 construct: The entire coding region of the receptor cDNA insert was subcloned into the RcRSV vector; expressed in transfected cells

mice [2] = system: mice; parameters: dose or concentration left out as unconfirmed
mice [3] = experiment: Acetic acid abdominal constriction (writhing) test; assay type: in vivo, mouse; conditions: NAL 1 mg/kg and 10 mg/kg sc
Description: The AC assay was a modification of the technique originally described by Koster et al. Mice (N=9-15 per group) were acclimated to individual cylindrical Plexiglass observation chambers for >30 minutes. […] A separate group of Sal-treated mice received no icv injection (None). Between 5 and 10 minutes later, all mice were given an intraperitoneal (ip) injection of 0.9% acetic acid and placed back in their observation chambers. For the next 30 minutes, the number of abdominal constrictions (lengthwise stretches of the torso with a concomitant concave arching of the back) were counted and recorded. Four mice in separate chambers were observed simultaneously by a single experimenter blind to drug condition.

mice [4] = experiment: Morphine hypothermia and Straub tail in DBA/2J mice
mice [5] = experiment: Reversal of morphine analgesia, 49° C. tail withdrawal latency; assay type: in vivo, mouse; conditions: morphine sulfate 5 mg/kg sc

T1 sequence (P35370 whole entry): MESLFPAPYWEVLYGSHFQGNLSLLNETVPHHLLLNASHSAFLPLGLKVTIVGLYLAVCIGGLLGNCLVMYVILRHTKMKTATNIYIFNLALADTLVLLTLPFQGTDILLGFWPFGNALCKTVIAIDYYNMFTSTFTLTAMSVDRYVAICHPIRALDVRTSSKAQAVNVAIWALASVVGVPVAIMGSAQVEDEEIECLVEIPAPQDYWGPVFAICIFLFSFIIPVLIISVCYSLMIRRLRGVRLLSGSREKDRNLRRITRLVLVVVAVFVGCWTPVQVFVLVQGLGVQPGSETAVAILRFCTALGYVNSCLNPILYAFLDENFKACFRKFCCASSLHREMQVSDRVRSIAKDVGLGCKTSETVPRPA

C[C@@H](NC(=O)[C@@H](N)Cc1ccc(O)cc1)C(=O)NCC(=O)N(C)[C@@H](Cc1ccccc1)C(=O)NCCO [DAMGO, Tyr-DAla-Gly-Met-Phe-Gly-ol]
specific binding of the radioactively-labeled ligand [1]: no specific binding

C=CCN1CC[C@]23c4c5ccc(O)c4O[C@H]2C(=O)CC[C@@]3(O)[C@H]1C5 [naloxone]
hyperalgesia in TW test (mice [2]): In no case did any mouse treated with OFQ or naloxone exhibit hyperalgesia | stress-induced analgesia: post-injection increase in TW latency (mice [2]; 46° C. water, p<0.05): attenuated the 4 s post-injection increase in TW latency | decreased number of abdominal constrictions due to SIA (mice [3]): reversed

CN1CC[C@]23c4c5ccc(O)c4O[C@H]2[C@@H](O)C=C[C@H]3[C@H]1C5 [morphine]
decrease in body temperature (mice [4]; MOR 20 mg/kg i.p., DBA/2J mice): 6 °C | Straub tail (mice [4]; morphine 20 mg/kg): produced Straub tail | duration of analgesia (mice [5]): about 2 hours | time of peak analgesia (mice [5]; post-injection): 30 min

CC1(C)SSC(C)(C)[C@@H](NC(=O)[C@@H](N)Cc2ccc(O)cc2)C(=O)NCC(=O)N[C@@H](Cc2ccccc2)C(=O)N[C@H]1C(=O)O [DPDPE, c[D-penicillamine^2, D-penicillamine^5]enkephalin]
specific binding of the radioactively-labeled ligand [1]: no specific binding

CC[C@]12CCN(CC3CC3)[C@H](C(=O)c3ccc(O)cc31)[C@@H]2C [ethylketocyclazocine]
specific binding of the radioactively-labeled ligand [1]: no specific binding

CCC(=O)C(CC(C)N(C)C)(c1ccccc1)c1ccccc1 (stereo not shown) [methadone]
Bmax [1]: 400-450 fentomoles/μg protein | Kd [1]: ~0.1 nM | specific binding of the radioactively-labeled ligand [1]: specific binding was found

CCC12CCN(CC3(O)CC3)C(Cc3ccc(O)cc31)C2(C)C (stereo not shown) [bremacozine]
specific binding of the radioactively-labeled ligand [1]: no specific binding

CN1CC[C@]23c4c5ccc(O)c4O[C@H]2[C@@H](O)CC[C@H]3[C@H]1C5 [dihydromorphine]
specific binding of the radioactively-labeled ligand [1]: no specific binding

β-endorphin
specific binding of the radioactively-labeled ligand [1]: no specific binding
